PubChem BioAssay (NCI)
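1) Cells in 96-well plates. 2) Compound, 48 h, 5 concentrations. 3) Linear interpolation between surrounding doses. 4) Unreached endpoint = highest concentration. TGI: total growth inhibition.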

Tests used:
Assay in all cases: NCI anticancer screen, dose series, 48 h
[1] = test system: MDA-N
[2] = test system: OVCAR-3 ovarian
[3] = test system: NCI/ADR-RES ovarian
[4] = test system: MDA-MB-231 breast
[5] = test system: SR leukemia
[6] = test system: SK-MEL-5 melanoma
[7] = test system: HOP-62 NSCLC
[8] = test system: SW-620 colon
[9] = test system: RXF 393 renal
[10] = test system: BT-549 breast
[11] = test system: UACC-62 melanoma
[12] = test system: HCC-2998 colon
[13] = test system: SK-MEL-28 melanoma
[14] = test system: HS 578T breast
[15] = test system: MCF7 breast
[16] = test system: MOLT-4 leukemia
[17] = test system: DU-145 prostate
[18] = test system: MALME-3M melanoma
[19] = test system: K-562 leukemia
[20] = test system: MDA-MB-435
[21] = test system: UACC-257 melanoma
[22] = test system: HOP-92 NSCLC
[23] = test system: M14 melanoma
[24] = test system: EKVX NSCLC
[25] = test system: CCRF-CEM leukemia
[26] = test system: SF-295 CNS
[27] = test system: SNB-75 CNS
[28] = test system: HL-60(TB) leukemia
[29] = test system: HCT-116 colon
[30] = test system: TK-10 renal
[31] = test system: KM12 colon
[32] = test system: IGROV1 ovarian
[33] = test system: RPMI-8226 leukemia
[34] = test system: SNB-19 CNS
[35] = test system: OVCAR-5 ovarian
[36] = test system: A549 NSCLC
[37] = test system: COLO 205 colon
[38] = test system: NCI-H23 lung
[39] = test system: NCI-H226 lung
[40] = test system: OVCAR-4 ovarian
[41] = test system: SK-OV-3 ovarian
[42] = test system: U251 CNS
[43] = test system: SK-MEL-2 melanoma
[44] = test system: HCT-15 colon
[45] = test system: A498 renal
[46] = test system: SF-268 CNS
[47] = test system: NCI-H522 lung
[48] = test system: SN12C renal
[49] = test system: PC-3 prostate
[50] = test system: 786-0 renal
[51] = test system: NCI-H460 lung
[52] = test system: T-47D breast
[53] = test system: CAKI-1 renal
[54] = test system: UO-31 renal
[55] = test system: LOX IMVI melanoma
[56] = test system: HT29 colon
[57] = test system: ACHN renal
[58] = test system: OVCAR-8 ovarian
[59] = test system: SF-539 CNS

## CC(=O)c1c(C)cn(S(=O)(=O)NC(=O)Nc2nncs2)c1C
[1]
  TGI: > 100 µM
[2]
  TGI: > 100 µM
[3]
  TGI: > 100 µM
[4]
  TGI: > 100 µM
[5]
  TGI: > 100 µM
[6]
  TGI: > 100 µM
[7]
  TGI: > 100 µM
[8]
  TGI: > 100 µM
[9]
  TGI: > 100 µM
[10]
  TGI: > 100 µM
[11]
  TGI: > 100 µM
[12]
  TGI: > 100 µM
[13]
  TGI: > 100 µM
[14]
  TGI: > 100 µM
[15]
  TGI: > 100 µM
[16]
  TGI: > 100 µM
[17]
  TGI: > 100 µM
[18]
  TGI: > 100 µM
[19]
  TGI: > 100 µM
[20]
  TGI: > 100 µM
[21]
  TGI: > 100 µM
[22]
  TGI: > 100 µM
[23]
  TGI: > 100 µM
[24]
  TGI: > 100 µM
[25]
  TGI: 78.1 µM
[26]
  TGI: > 100 µM
[27]
  TGI: > 100 µM
[28]
  TGI: > 100 µM
[29]
  TGI: > 100 µM
[30]
  TGI: > 100 µM
[31]
  TGI: > 100 µM
[32]
  TGI: > 100 µM
[33]
  TGI: > 100 µM
[34]
  TGI: > 100 µM
[35]
  TGI: > 100 µM
[36]
  TGI: > 100 µM
[37]
  TGI: > 100 µM
[38]
  TGI: > 100 µM
[39]
  TGI: > 100 µM
[40]
  TGI: > 100 µM
[41]
  TGI: > 100 µM
[42]
  TGI: > 100 µM
[43]
  TGI: > 100 µM
[44]
  TGI: > 100 µM
[45]
  TGI: > 100 µM
[46]
  TGI: > 100 µM
[47]
  TGI: > 100 µM
[48]
  TGI: > 100 µM
[49]
  TGI: > 100 µM
[50]
  TGI: > 100 µM
[51]
  TGI: > 100 µM
[52]
  TGI: > 100 µM
[53]
  TGI: > 100 µM
[54]
  TGI: > 100 µM
[55]
  TGI: > 100 µM
[56]
  TGI: > 100 µM
[57]
  TGI: > 100 µM
[58]
  TGI: > 100 µM

## O=C(OC1C=C=CS(=O)(=O)CC#C/C=C\1)c1cnc2ccccc2n1 (stereo unspecified)
[1]
  TGI: > 100 µM
[2]
  TGI: > 100 µM
[3]
  TGI: > 100 µM
[4]
  TGI: > 100 µM
[5]
  TGI: > 100 µM
[6]
  TGI: > 100 µM
[7]
  TGI: > 100 µM
[8]
  TGI: > 100 µM
[9]
  TGI: > 100 µM
[10]
  TGI: > 100 µM
[11]
  TGI: > 100 µM
[12]
  TGI: > 100 µM
[13]
  TGI: > 100 µM
[14]
  TGI: > 100 µM
[15]
  TGI: > 100 µM
[16]
  TGI: > 100 µM
[17]
  TGI: > 100 µM
[18]
  TGI: > 100 µM
[19]
  TGI: > 100 µM
[20]
  TGI: > 100 µM
[21]
  TGI: > 100 µM
[22]
  TGI: 90.1 µM
[23]
  TGI: > 100 µM
[24]
  TGI: > 100 µM
[25]
  TGI: > 100 µM
[26]
  TGI: > 100 µM
[27]
  TGI: > 100 µM
[59]
  TGI: > 100 µM
[28]
  TGI: > 100 µM
[29]
  TGI: > 100 µM
[30]
  TGI: > 100 µM
[31]
  TGI: > 100 µM
[32]
  TGI: > 100 µM
[33]
  TGI: > 100 µM
[34]
  TGI: > 100 µM
[35]
  TGI: > 100 µM
[36]
  TGI: > 100 µM
[37]
  TGI: > 100 µM
[38]
  TGI: > 100 µM
[39]
  TGI: > 100 µM
[40]
  TGI: > 100 µM
[41]
  TGI: > 100 µM
[42]
  TGI: > 100 µM
[43]
  TGI: > 100 µM
[44]
  TGI: > 100 µM
[45]
  TGI: > 100 µM
[46]
  TGI: > 100 µM
[47]
  TGI: 51.6 µM
[48]
  TGI: > 100 µM
[49]
  TGI: > 100 µM
[51]
  TGI: > 100 µM
[52]
  TGI: > 100 µM
[53]
  TGI: > 100 µM
[54]
  TGI: > 100 µM
[55]
  TGI: > 100 µM
[56]
  TGI: > 100 µM
[57]
  TGI: > 100 µM
[58]
  TGI: > 100 µM
